Assay results taken from patent US20260158009A1 (GENZYME CORPORATION, priority 2023, published 2026).

What was measured:
[1] = target: T1, hRIPK1 (aa 1-375) fusion protein (Homo sapiens, UniProt Q13546); test: ADP-Glo kinase assay: catalytic activity of RIPK1 (autophosphorylation, conversion of ATP to ADP); type: biochemical
T1 construct: hRIPK1 (aa 1-375) fusion protein
T1 sequence (Q13546 1-375): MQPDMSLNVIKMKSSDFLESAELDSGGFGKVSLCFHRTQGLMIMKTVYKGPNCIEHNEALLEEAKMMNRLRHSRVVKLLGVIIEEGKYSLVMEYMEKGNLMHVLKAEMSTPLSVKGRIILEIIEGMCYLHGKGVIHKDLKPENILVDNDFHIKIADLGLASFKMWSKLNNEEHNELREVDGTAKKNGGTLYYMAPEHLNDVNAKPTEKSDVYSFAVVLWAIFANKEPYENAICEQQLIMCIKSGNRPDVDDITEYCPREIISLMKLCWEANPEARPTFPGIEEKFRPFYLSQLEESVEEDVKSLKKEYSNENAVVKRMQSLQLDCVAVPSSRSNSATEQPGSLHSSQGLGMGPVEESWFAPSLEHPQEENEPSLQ
Protocol: The catalytic activity of RIPK1 was measured by monitoring the conversion of Adenosine triphosphate (ATP) to Adenosine diphosphate (ADP) due to autophosphorylation using an ADP-Glo kinase kit (Promega, catalog no. V9104).
In detail, 2 μl recombinantly produced hRIPK1 (aa 1-375) fusion protein (end concentration 3.6 μg/ml) and 2 μl compound (end concentration 33300-1.69 nM; DMSO end concentration 1%) were incubated for 30 minutes at room temperature and then 2 μl ATP (ADP Glo kit, end concentration 50 μM) were added. After another 240 minutes incubation at room temperature, 5 μl Promega ADP-Glo reagent I was added to quench the reaction and deplete unconsumed ATP. After an incubation period of 30 minutes, 10 μl Promega ADP-Glo detection reagent II was added resulting in conversion of ADP to ATP, which generates a light-reaction between luciferase and luciferin. Luminescence was quantified after 30 minutes with a Pherastar FS (BMG LABTECH, Ortenberg).
The adjustment was obtained by nonlinear regression using the Levenberg Marquardt algorithm.

U937 cells = test: Cellular assay in U937 cells: activity of RIPK1 inhibitors on TNFα/zVAD.fmk-induced cell death (necroptosis), CellTiter 96 AQueous (MTS) readout; type: cell-based; settings: Homo sapiens, U-937
From the text: Upon TNF-Receptor I ligation, Ser/Thr kinase RIPK1 is recruited to a transient receptor complex 1. Upon modification of RIPK1 which promotes activation of RIPK1, complex IIb can form, that involves recruitment of RIPK3 and MLKL (mixed lineage-kinase domain-like protein) which then translocates from the cytosol to the plasma membrane to execute cell death (Cai, Z. et al, Nat. Cell Biol. (2014) 16:55-65).
Cell death was quantified in 96 well plates by determination of the amount of live cell using a CellTiter 96 AQueous reagent (Promega), a calorimetric method to measure the number of live cells by reducing tetrazolium compound [3-(4,5-dimethylthiazol-2-yl)-5-(3-carboxymethoxyphenyl)-2-(4-sulfophenyl)-2H-tetrazolium, inner salt; MTS] into formazan. Absorbance of formazan was read at 490 nm. The inhibitory activity of the test compound was quantified in a concentration response curve (CRC) experiment.
Compounds were obtained as 10 mM stock solutions and were diluted 1 to 10 volumes with DMSO to yield a 1 mM solution. From this solution 2 μl were diluted with 998 μl growth medium. 100 μl of 2 μM compound solution was further diluted sequentially with a dilution factor of 2.5 by adding 150 μl growth medium. A total of 10 concentrations were tested ranging from 10 μM to 0.26 nM or from 1 μM to 0.07 nM.
U937 cells were cultured in RPMI1640 Glutamax and 10% heat inactivated FBS. 50 μl cell suspension containing 1×10^6 cells/ml supplemented with 50 μM zVAD.fmk (Benzyloxycarbonyl-Val-Ala-Asp (OMe) fluoromethylketone) and 100 ng/ml recombinant human TNF[…] were dispensed in each well of a 96-well plate. 50 μl of compound dilutions (described in Cellular assay in U937 cells) were added and the cell suspension incubated overnight (18 to 24 hrs) at 37° C., 5% CO2 in a humidified atmosphere (95% rH). High (no compound) and low control (no TNF[…], zVAD.fmk) were tested with 7 replicates; all compound concentrations were tested in duplicates on each experimental plate.
CellTiter 96 Aqueous reagent was mixed (100 μl PMS (phenazine methosulfate) solution/2 ml MTS (3-(4,5-[…])-5-(3-carboxymethoxyphenyl)-2-(4-sulfophenyl)-2H-tetrazolium, inner salt) solution) and 20 μl were added per well. After 4 hrs incubation at 37° C. (5% CO2 95% rH) optical density was measured at 490 nm on a microplate reader (Tecan Infinite M1000).
The % inhibition is expressed as percentage of the maximal inhibition value obtained in the absence of TNFα/zVAD.fmc.

| SMILES | IC50 [1] [nM] | IC50 (U937 cells) [nM] |
| --- | --- | --- |
| Cc1ccc([C@@H]2CCON2C(=O)[C@H]2CC[C@H](Cc3cc(F)c4nc(C)nn4c3)CC2)cn1 [compound 341, trans-[4-[(8-fluoro-2-methyl-[1,2,4]triazolo[1,5-a]pyridin-6-yl)methyl]cyclohexyl]-[(3S)-3-(6-methylpyridin-3-yl)-1,2-oxazolidin-2-yl]methanone] | 81 | 114 |
| Cn1cc(C[C@H]2CC[C@H](C(=O)N3OCC[C@H]3c3cncc(C#N)c3)CC2)cn1 [compound 235, trans-5-[(3S)-2-[4-[(1-methylpyrazol-4-yl)methyl]cyclohexanecarbonyl]isoxazolidin-3-yl]pyridine-3-carbonitrile] | 35 | 152 |
| Cc1nc([C@@H]2CCON2C(=O)[C@H]2CC[C@H](Cn3ncc4ccc(C(N)=O)cc43)CC2)cs1 [Compound 234, trans-1-[[4-[(3S)-3-(2-methylthiazol-4-yl)isoxazolidine-2-carbonyl]cyclohexyl]methyl]indazole-6-carboxamide] | 49 | 126 |
| Cc1nc2c(F)cc(C[C@H]3CC[C@H](C(=O)N4OCC[C@H]4c4cncc(F)c4)CC3)cn2n1 [compound 380] | 70 | 129 |
| COc1cc(C[C@H]2CC[C@H](C(=O)N3OCC[C@H]3c3cncc(C)c3)CC2)cn2nc(C)nc12 [compound 383, trans-[4-[(8-methoxy-2-methyl-[1,2,4]triazolo[1,5-a]pyridin-6-yl)methyl]cyclohexyl]-[(3S)-3-(5-methylpyridin-3-yl)-1,2-oxazolidin-2-yl]methanone] | 81 | 47 |
| Cc1cncc([C@@H]2CCON2C(=O)[C@H]2CC[C@H](Cc3cc(C)c4nc(C)nn4c3)CC2)n1 [compound 411, trans-[4-[(2,8-dimethyl-[1,2,4]triazolo[1,5-a]pyridin-6-yl)methyl]cyclohexyl]-[(3S)-3-(6-methylpyrazin-2-yl)isoxazolidin-2-yl]methanone] | 48 | 36 |
| Cn1cc(C[C@H]2CC[C@H](C(=O)N3OCC[C@H]3c3cc(F)cc(C#N)c3)CC2)nn1 [Compound 258, trans-3-fluoro-5-[(3S)-2-[4-[(1-methyltriazol-4-yl)methyl]cyclohexanecarbonyl]isoxazolidin-3-yl]benzonitrile] | 71 | 862 |
| Cc1cnc([C@@H]2CCON2C(=O)[C@H]2CC[C@H](Cc3cc(F)cnc3C)CC2)cn1 [compound 316, trans-[4-[(5-fluoro-2-methyl-3-pyridyl)methyl]cyclohexyl]-[(3S)-3-(5-methylpyrazin-2-yl)isoxazolidin-2-yl]methanone] | 31 | 27 |
| COc1cc(C[C@H]2CC[C@H](C(=O)N3OCC[C@H]3c3csc(C)n3)CC2)cn2nc(C)nc12 [compound 367, trans-[4-(8-Methoxy-2-methyl-[1,2,4]triazolo[1,5-a]pyridin-6-ylmethyl)-cyclohexyl]-[(S)-3-(2-methyl-thiazol-4-yl)-isoxazolidin-2-yl]-methanone] | 94 | – |
| Cc1cnc([C@@H]2CCON2C(=O)[C@H]2CC[C@H](Cc3cnc4c(C)nn(C)c4c3)CC2)cn1 [compound 410, [4-[(1,3-dimethylpyrazolo[4,3-b]pyridin-6-yl)methyl]cyclohexyl]-[(3S)-3-(5-methylpyrazin-2-yl)-1,2-oxazolidin-2-yl]methanone] | 80 | – |
| COc1cc(CC2CCC(C(=O)N3OCC[C@H]3c3cnccn3)CC2)cn2nc(C)nc12 (stereo partly drawn) [compound 314, [4-[(8-methoxy-2-methyl-[1,2,4]triazolo[1,5-a]pyridin-6-yl)methyl]cyclohexyl]-[(3S)-3-pyrazin-2-yl-1,2-oxazolidin-2-yl]methanone] | 35 | – |

Compounds with a lower IC50 [1], results first:

| IC50 [1] [nM] | SMILES | IC50 (U937 cells) [nM] |
| --- | --- | --- |
| 21 | N#Cc1cnc2ccn(C[C@H]3CC[C@H](C(=O)N4OCC[C@H]4c4cc(F)cc(F)c4)CC3)c2c1 [compound 17, trans-1-((4-((S)-3-(3,5-difluorophenyl)isoxazolidine-2-carbonyl)cyclohexyl)methyl)-1H-pyrrolo[3,2-b]pyridine-6-carbonitrile] | 2 |
| 21 | Cn1cc(C[C@H]2CC[C@H](C(=O)N3OCC[C@H]3c3cc(F)cc(C#N)c3)CC2)cn1 [compound 150, trans-3-fluoro-5-[(3S)-2-[4-[(1-methylpyrazol-4-yl)methyl]cyclohexanecarbonyl]isoxazolidin-3-yl]benzonitrile] | 25 |
| 20 | N#Cc1cc(F)cc([C@@H]2CCON2C(=O)[C@H]2CC[C@H](Cn3ccc4ncc(F)cc43)CC2)c1 [compound 93, trans-3-fluoro-5-((S)-2-(4-((6-fluoro-1H-pyrrolo[3,2-b]pyridin-1-yl)methyl)cyclohexane-1-carbonyl)isoxazolidin-3-yl)benzonitrile] | 2 |
| 20 | Cc1c(C#N)cncc1C[C@H]1CC[C@H](C(=O)N2OCC[C@H]2c2cc(F)cc(C#N)c2)CC1 [compound 276, trans-5-[[4-[(3S)-3-(3-cyano-5-fluoro-phenyl)isoxazolidine-2-carbonyl]cyclohexyl]methyl]-4-methyl-pyridine-3-carbonitrile] | 9 |
| 20 | N#Cc1cc(F)cc([C@@H]2CCON2C(=O)[C@H]2CC[C@H](Cc3ccc(F)c(C#N)c3)CC2)c1 [compound 244, trans-5-[[4-[(3S)-3-(3-cyano-5-fluoro-phenyl)isoxazolidine-2-carbonyl]cyclohexyl]methyl]-2-fluoro-benzonitrile] | – |
| 18 | N#Cc1cc(F)c2ccn(C[C@H]3CC[C@H](C(=O)N4OCC[C@H]4c4cc(F)cc(F)c4)CC3)c2c1 [compound 45, trans-1-((4-((S)-3-(3,5-difluorophenyl)isoxazolidine-2-carbonyl)cyclohexyl)methyl)-4-fluoro-1H-indole-6-carbonitrile] | 6 |
| 15 | NC(=O)c1ccc2ccn(C[C@H]3CC[C@H](C(=O)N4OCC[C@H]4c4cc(F)cc(F)c4)CC3)c2c1 [compound 105, trans-1-((4-((S)-3-(3,5-difluorophenyl)isoxazolidine-2-carbonyl)cyclohexyl)methyl)-1H-indole-6-carboxamide] | 4 |
| 13 | COc1cncc([C@@H]2CCON2C(=O)[C@H]2CC[C@H](Cn3ncc4ccc(C#N)cc43)CC2)n1 [compound 190, trans-1-[[4-[(3S)-3-(6-methoxypyrazin-2-yl)isoxazolidine-2-carbonyl]cyclohexyl]methyl]indazole-6-carbonitrile] | 4 |
| 7 | Cc1cc2nnc(C)n2cc1C[C@H]1CC[C@H](C(=O)N2OCC[C@H]2c2cccc(F)c2)CC1 [compound 317, trans-[4-[(3,7-dimethyl-[1,2,4]triazolo[4,3-a]pyridin-6-yl)methyl]cyclohexyl]-[(3S)-3-(3-fluorophenyl)isoxazolidin-2-yl]methanone] | 2 |
| 5 | CNC(=O)c1cc(F)cc(C[C@H]2CC[C@H](C(=O)N3OCC[C@H]3c3cc(F)cc(C#N)c3)CC2)c1 [compound 164, trans-3-[[4-[(3S)-3-(3-cyano-5-fluoro-phenyl)isoxazolidine-2-carbonyl]cyclohexyl]methyl]-5-fluoro-N-methyl-benzamide] | 7 |
